Among the data in patent publication US8546608B2, “Proteasome inhibitors and methods of using the same” (Cephalon, Inc., priority 2003, dated 2013) are EC50 and IC50 values, retold here.

Assay [1] has as its target T1, proteasome in Molt-4 cells (human leukemia) (Homo sapiens, UniProt P20618+P28074).
T1 sequence (P28074 60-263): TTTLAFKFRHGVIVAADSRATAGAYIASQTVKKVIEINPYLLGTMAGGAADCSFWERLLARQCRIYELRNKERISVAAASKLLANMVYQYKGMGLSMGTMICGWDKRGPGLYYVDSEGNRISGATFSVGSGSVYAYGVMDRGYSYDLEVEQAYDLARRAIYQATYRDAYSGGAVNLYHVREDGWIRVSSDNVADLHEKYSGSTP
T1 sequence (P20618 29-241): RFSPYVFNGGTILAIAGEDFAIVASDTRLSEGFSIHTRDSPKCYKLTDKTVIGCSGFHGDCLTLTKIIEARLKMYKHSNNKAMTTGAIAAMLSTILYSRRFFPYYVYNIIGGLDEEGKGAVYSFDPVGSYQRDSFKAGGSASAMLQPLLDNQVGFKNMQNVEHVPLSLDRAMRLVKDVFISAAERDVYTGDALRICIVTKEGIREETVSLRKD
The class given is cell-based. Put shortly:
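Intact Molt-4 cells (6×10^6 cells/mL) in HEPES-buffered saline were preincubated with inhibitor 15 min at 37 °C, then given cell-permeable MeOSuc-FLF-AFC at 25 μM final.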

Assay [2] deals with T2, 20S Human Erythrocyte Proteasome (HEP) (Homo sapiens, UniProt P20618+P28074).
T2 construct: 20S Human Erythrocyte Proteasome (HEP), purchased from Immatics Biotechnologies Inc; purchased Immatics Biotechnologies Inc., Tübingen, Germany; host or cells: human erythrocytes (natural source)
Nature of the assay: Chymotrypsin-like activity of 20S Human Erythrocyte Proteasome (HEP), IC50 determination. The class given is biochemical. The conditions noted are these: assay of Example C, inhibition of HEP. Put shortly: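 20S proteasome at 0.2 μg/mL (about 0.6 nM catalytic sites) in 20 mM Tris with 0.04% SDS, preincubated 15 min at 37° C with inhibitor before Suc-LLVY-AMC (100 μM final). AMC fluorescence read in the linear range; triplicates, IC50 from concentration series.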

The mark [3] stands for this setting: assay of Example E, inhibition of MOLT4; read-out: MOLT4 (EC50).
Where [4] appears, read: read-out: MOLT4 (EC50); assay of Example E, inhibition of MOLT4.

Structures can show the parent of a compound that is named as a salt. Where two headings read alike, the source gives them in different places.

As to `CCCCCC(=O)NC[C@H](NC(=O)c1ccc(CCCC)cc1)C(=O)N[C@@H](CC(C)C)B1O[C@@H]2C[C@@H]3C[C@@H](C3(C)C)[C@]2(C)O1` [D.24.10, 4-butylbenzamide, N-[(1S)-1-[[[(1R)-1-[(3aS,4S,6S,7aR)-hexahydro-3a,5,5-trimethyl-4,6-methano-1,3,2-benzodioxaborol-2-yl]-3-methylbutyl]amino]carbonyl]-2-(hexanonylamino)ethyl]-], the EC50 in assay [1] (setting [3]) is below 0.2 µM. The molecule also came in with an IC50 in assay [2] below 0.01 µM.

Take `CCCCc1ccc(C(=O)N[C@@H](CNC(=O)C2CC2)C(=O)N[C@@H](CC(C)C)B2O[C@@H]3C[C@@H]4C[C@@H](C4(C)C)[C@]3(C)O2)cc1` [D.24.11]: in assay [1] (setting [3]), the EC50 is below 0.2 µM. For the same molecule, in assay [2], the concentration for half-maximal inhibition (IC50) is below 0.01 µM.

As for `CCCCc1ccc(C(=O)N[C@@H](CNC(=O)Nc2ccccc2)C(=O)N[C@@H](CC(C)C)B2O[C@@H]3C[C@@H]4C[C@@H](C4(C)C)[C@]3(C)O2)cc1` [D.24.12, 4-Butylbenzamide, N-[(1S)-1-[[[(1R)-1-[(3aS,4S,6S,7aR)-hexahydro-3a,5,5-trimethyl-4,6-methano-1,3,2-benzodioxaborol-2-yl]-3-methylbutyl]amino]carbonyl]-2-(3-phenyl-ureido)ethyl]-], the concentration giving a half-maximal response (EC50) in assay [1] (setting [3]) was below 0.2 µM. Besides, the IC50 in assay [2] is below 0.01 µM.

Turning to `CCCCc1ccc(C(=O)N[C@@H](CNC(=O)Cc2ccc(OC)c(OC)c2)C(=O)N[C@@H](CC(C)C)B2O[C@@H]3C[C@@H]4C[C@@H](C4(C)C)[C@]3(C)O2)cc1` [D.24.14], the EC50 in assay [1] (setting [3]) was below 0.2 µM. The molecule further returned an IC50 in assay [2] below 0.01 µM.

Consider `CCCCc1ccc(C(=O)N[C@@H](CNC(=O)c2cccnc2)C(=O)N[C@@H](CC(C)C)B2O[C@@H]3C[C@@H]4C[C@@H](C4(C)C)[C@]3(C)O2)cc1` [D.24.15, 4-butylbenzamide, N-[(1S)-1-[[[(1R)-1-[(3aS,4S,6S,7aR)-hexahydro-3a,5,5-trimethyl-4,6-methano-1,3,2-benzodioxaborol-2-yl]-3-methylbutyl]amino]carbonyl]-2-(nicotinonylamino)ethyl]-], for which, in assay [1] (setting [3]), the EC50 was below 0.2 µM. Also, the half-maximal inhibitory concentration (IC50) in assay [2] is below 0.01 µM.

In the case of `CCOC(=O)/C=C/C(=O)N[C@@H](CCCNC(=N)N[N+](=O)[O-])C(=O)N[C@@H](CC(C)C)B(O)O` [E.1.1, Boronic acid, [(1R)-1-[[(2S)-5-[[imino(nitroamino)methyl]amino]-2-[((2E)-3-ethoxycarbonyl-1-oxoprop-2-enyl)amino]-1-oxopentyl]amino]-3-methylbutyl]], the EC50 in assay [1] (setting [3]) was above 10 µM. The half-maximal inhibitory concentration (IC50) in assay [2] is below 0.01 µM.

For `CC(C)C[C@H](NC(=O)[C@H](CCCNC(=N)N[N+](=O)[O-])NC(=O)c1cnccn1)B(O)O` [E.1.2, Boronic acid, [(1R)-1-[[(2S)-5-[[imino(nitroamino)methyl]amino]-2-[(2-pyrazine-carbonyl)amino]-1-oxopentyl]amino]-3-methylbutyl]], the EC50 in assay [1] (setting [3]) lay in the range of 2 to 10 µM. The same molecule had a half-inhibitory concentration (IC50) in assay [2] below 0.01 µM.

Consider `CCCCc1ccc(C(=O)N[C@@H](CCCNC(=N)N[N+](=O)[O-])C(=O)N[C@@H](CC(C)C)B(O)O)cc1` [E.1.3, Boronic acid, [(1R)-1-[[(2S)-5-[[imino(nitroamino)methyl]amino]-2-[(4-butyl-benzoyl)amino]-1-oxopentyl]amino]-3-methylbutyl]], for which the half-maximal effective concentration (EC50) in assay [1] (setting [3]) is 0.2 to 2 µM. In assay [2], this molecule had an IC50 below 0.01 µM.

As for `CC(C)C[C@H](NC(=O)[C@H](CCCNC(=N)N[N+](=O)[O-])NC(=O)c1ccc2ccccc2c1)B(O)O` [E.1.4, Boronic acid, [(1R)-1-[[(2S)-5-[[imino(nitroamino)methyl]amino]-2-[(2-naphthoyl)amino]-1-oxopentyl]amino]-3-methylbutyl]], the EC50 in assay [1] (setting [3]) lay in the range of 0.2 to 2 µM. This molecule registered a concentration for half-maximal inhibition (IC50) in assay [2] below 0.01 µM.

Take `CC(C)C[C@H](NC(=O)[C@H](CCCNC(=N)N[N+](=O)[O-])NC(=O)CCN1C(=O)c2ccccc2C1=O)B(O)O` [E.1.5]: in assay [1] (setting [3]), the EC50 is above 10 µM. Further, the concentration for half-maximal inhibition (IC50) in assay [2] is below 0.01 µM.

Regarding `COCCOCC(=O)N[C@@H](CCCNC(=N)N[N+](=O)[O-])C(=O)N[C@@H](CC(C)C)B(O)O` [E.1.6, Boronic acid, [(1R)-1-[[(2S)-5-[[imino(nitroamino)methyl]amino]-2-[[2-(2-methoxyethoxy)acetyl]amino]-1-oxopentyl]amino]-3-methylbutyl], HCl salt], the EC50 in assay [1] (setting [4]) was 2 to 10 µM. In addition, in assay [2], the IC50 is below 0.1 µM.

Turning to `CCCCOCC(=O)N[C@@H](CCCNC(=N)N[N+](=O)[O-])C(=O)N[C@@H](CC(C)C)B(O)O` [E.1.7, Boronic acid, [(1R)-1-[[(2S)-5-[[imino (nitroamino)methyl]amino]-2-[(2-butoxyacetyl)amino]-1-oxopentyl]amino]-3-methylbutyl]], the concentration for a half-maximal effect (EC50) in assay [1] (setting [3]) is 2 to 10 µM. Moreover, in assay [2], the IC50 was below 0.01 µM.

With `COCCOCCOCC(=O)N[C@@H](CCCNC(=N)N[N+](=O)[O-])C(=O)N[C@@H](CC(C)C)B(O)O` [E.1.8, Boronic acid, [(1R)-1-[[(2S)-5-[[imino(nitroamino)methyl]amino]-2-[[2-[2-(2-methoxyethoxy)ethoxy]acetyl]amino]-1-oxopentyl]amino]-3-methylbutyl]], the EC50 in assay [1] (setting [3]) is above 10 µM. This molecule also had a half-inhibitory concentration (IC50) in assay [2] below 0.01 µM.

On to `CC(C)C[C@H](NC(=O)[C@H](CCCNC(=N)N[N+](=O)[O-])NC(=O)COc1ccc2ccccc2c1)B(O)O` [E.1.11, Boronic acid, [(1R)-1-[[(2S)-5-[[imino(nitroamino)methyl]amino]-2-[(2-(naphthalen-2-yloxy)acetyl]amino]-1-oxopentyl]amino]-3-methylbutyl]], for which the 50% effective concentration (EC50) in assay [1] (setting [3]) was 0.2 to 2 µM. For the same molecule, in assay [2], the IC50 is below 0.01 µM.

In the case of `CC(C)C[C@H](NC(=O)[C@H](CCCNC(=N)N[N+](=O)[O-])NC(=O)CCc1cccs1)B(O)O` [E.1.12, Boronic acid, [(1R)-1-[[(2S)-5-[[imino(nitroamino)methyl]amino]-2-[(3-thiophen-2-yl-propanoyl)amino]-1-oxopentyl]amino]-3-methylbutyl]], the EC50 in assay [1] (setting [3]) was above 10 µM. The molecule further showed a half-maximal inhibitory concentration (IC50) in assay [2] below 0.01 µM.

As to `CC(C)C[C@H](NC(=O)[C@H](CCCNC(=N)N[N+](=O)[O-])NC(=O)Cc1ccccc1Cl)B(O)O` [E.1.13, Boronic acid, [(1R)-1-[[(2S)-5-[[imino(nitroamino)methyl]amino]-2-[2-(2-chlorophenyl)acetyl]amino]-3-methylbutyl] HCl salt], the half-maximal effective concentration (EC50) in assay [1] (setting [4]) fell in the range of 2 to 10 µM. The molecule also had an IC50 in assay [2] below 0.01 µM.

Consider `CCCCCCCCS(=O)(=O)N[C@@H](CCCNC(=N)N[N+](=O)[O-])C(=O)N[C@@H](CC(C)C)B(O)O` [E.1.15, Boronic acid, [(1R)-1-[[(2S)-5-[[imino(nitroamino)methyl]amino]-2-[(1-octanesulfonyl)amino]-1-oxopentyl]amino]-3-methylbutyl], HCl salt], for which the EC50 in assay [1] (setting [4]) fell in the range of 0.2 to 2 µM. Moreover, the half-inhibitory concentration (IC50) in assay [2] was below 0.01 µM.

Consider `CCCCCCCCCC(=O)N[C@@H](CNC(=O)c1ccc(C)cc1)C(=O)N[C@@H](CC(C)C)B(O)O` [E.1.16, Boronic acid, [(1R)-1-[[(2S)-3-[(4-methylbenzoyl)amino]-2-[(decanoylamino)]-1-oxopropyl]amino]-3-methylbutyl]], for which the 50% effective concentration (EC50) in assay [1] (setting [3]) was below 0.2 µM. In assay [2], the IC50 is below 0.01 µM.

Consider `CCCCCCCCCC(=O)N[C@H](C(=O)N[C@@H](CC(C)C)B(O)O)[C@@H](C)O` [E.1.17, Boronic acid, [(1R)-1-[[(2S,3R)-3-hydroxy-2-[(decanoyl)amino]-1-oxobutyl]amino]-3-methylbutyl]], for which, in assay [1] (setting [3]), the concentration giving a half-maximal response (EC50) was below 0.2 µM. This molecule displayed an IC50 in assay [2] below 0.01 µM.

For `CC(C)C[C@H](NC(=O)[C@@H](NC(=O)CCCCCCCCCN1C(=O)c2ccccc2C1=O)[C@@H](C)O)B(O)O` [E.1.18, Boronic acid, [(1R)-1-[[(2S,3R)-3-hydroxy-2-[[10-(1,3-dioxo-1,3-dihydro-isoindol-2-yl)-decanoyl]amino]-1-oxobutyl]amino]-3-methylbutyl]], in assay [1] (setting [3]), the concentration for a half-maximal effect (EC50) is below 0.2 µM. In assay [2], this molecule displayed an IC50 below 0.01 µM.

For the molecule `CC(C)C[C@H](NC(=O)[C@H](CCCNC(=N)N[N+](=O)[O-])NC(=O)CCCCCCCCCN1C(=O)c2ccccc2C1=O)B(O)O` [E.1.20], the EC50 in assay [1] (setting [3]) was below 0.2 µM. For the same molecule, in assay [2], the 50% inhibitory concentration (IC50) was below 0.01 µM.

With `CC(C)C[C@H](NC(=O)[C@H](CCCN/C(N)=N/[N+](=O)[O-])NC(=O)C(CCCCCCCCN1C(=O)c2ccccc2C1=O)C1CCCC1)B(O)O` (stereo partly drawn) [E.1.21], in assay [1] (setting [3]), the 50% effective concentration (EC50) is below 0.2 µM. The molecule further returned an IC50 in assay [2] below 0.01 µM.

Regarding `COC(=O)CCCCCCC(=O)N[C@@H](CCCNC(=N)N[N+](=O)[O-])C(=O)N[C@@H](CC(C)C)B(O)O` [E.1.22, Boronic acid, [(1R)-1-[[(2S)-5-[[imino(nitroamino)methyl]amino]-2-[[7-(methoxycarbonyl)heptanoyl]amino]-1-oxopentyl]amino]-3-methylbutyl]], the concentration giving a half-maximal response (EC50) in assay [1] (setting [3]) was above 10 µM. In assay [2], this molecule registered an IC50 below 0.01 µM.

Take `CC(C)C[C@H](NC(=O)[C@@H](NC(=O)CCCc1ccccc1)[C@@H](C)O)B(O)O` [E.1.23, Boronic acid, [(1R)-1-[[(2S,3R)-3-hydroxy-2-[(4-phenylbutanoyl)amino]-1-oxobutyl]amino]-3-methylbutyl]]: in assay [1] (setting [3]), the concentration giving a half-maximal response (EC50) was below 0.2 µM. The same molecule returned an IC50 in assay [2] below 0.01 µM.
